Experiments:
CRBN [1] = biological target: T1, CRBN (Homo sapiens, UniProt Q96SW2); test: CRBN displacement assay Format 2b (as 2a, quadruplicate, PHERAstar reader); type: binding
Description: Assay conditions are similar to Format 2a with the exception of • a. The assay run in quadruplicate • b. PHERAstar reader (BMG Labtech, Offenburg, Germany) was used instead of an Envision reader • c. For the determination of AC50 values, assays were performed at room temperature in 1536-well plates with a total assay volume of […] per well. The test compounds were dissolved and diluted in 100% DMSO. For the assays, 30 nL of DMSO or compound solution were added per well, followed by the addition of 3 μL protein solution (80 nM protein in 1× assay buffer).

CRBN [2] = biological target: T1, CRBN; test: CRBN displacement assay Format 2a (fluorescence polarization, 1536-well, Envision reader); type: binding
In short: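 Competition format: compound first equilibrated with CRBN protein (nominally 40 nM) for 45 min at RT, then challenged 45 min with 5 nM BodipyFL-conjugated lenalidomide tracer. FP measured at 480 nm excitation/535 nm emission; AC50 derived by four-parameter logistic fit of %-saturation.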

hTNNI3K WT = biological target: T2, hTNNI3K WT (Homo sapiens, UniProt Q59H18); test: TNNI3K degradation in HEK293 cells overexpressing hTNNI3K WT (western blot); type: cell-based; settings: FIGS. 4A-4B; for TNNI3K degradation (western blot): concentration dependent; for concentration from which no residual TNNI3K was detected: western blot, 18 hours
T2 construct: expressed in transfected cells
T2 sequence (Q59H18 1-835): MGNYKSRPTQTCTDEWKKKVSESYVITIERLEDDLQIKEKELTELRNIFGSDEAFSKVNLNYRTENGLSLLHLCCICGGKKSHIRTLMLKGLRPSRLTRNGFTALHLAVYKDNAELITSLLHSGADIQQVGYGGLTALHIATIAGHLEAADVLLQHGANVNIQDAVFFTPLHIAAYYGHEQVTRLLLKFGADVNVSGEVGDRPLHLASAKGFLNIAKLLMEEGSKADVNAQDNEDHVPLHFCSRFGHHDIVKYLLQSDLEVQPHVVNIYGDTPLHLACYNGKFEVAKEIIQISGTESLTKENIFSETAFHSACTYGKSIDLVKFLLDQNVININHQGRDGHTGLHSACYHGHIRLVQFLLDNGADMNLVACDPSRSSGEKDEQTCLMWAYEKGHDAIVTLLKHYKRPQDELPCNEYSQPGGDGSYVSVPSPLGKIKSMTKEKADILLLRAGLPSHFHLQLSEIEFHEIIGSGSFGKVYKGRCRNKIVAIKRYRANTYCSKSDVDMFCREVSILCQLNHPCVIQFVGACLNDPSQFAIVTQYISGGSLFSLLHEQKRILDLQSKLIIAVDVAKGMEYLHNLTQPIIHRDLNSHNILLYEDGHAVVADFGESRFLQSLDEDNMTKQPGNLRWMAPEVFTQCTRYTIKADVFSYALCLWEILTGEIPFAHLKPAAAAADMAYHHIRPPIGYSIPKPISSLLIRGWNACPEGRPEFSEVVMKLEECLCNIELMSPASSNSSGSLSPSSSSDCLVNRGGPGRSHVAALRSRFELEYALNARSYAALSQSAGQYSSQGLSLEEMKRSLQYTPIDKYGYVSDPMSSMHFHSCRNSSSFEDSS
Description: HEK293-hTNNI3K stable cells were seeded at 400,000 cells/well in 6-well plate and incubated at 37° C. and 5% CO2 overnight in DMEM containing 10% FBS. The following day growth media was replaced with low-serum media containing DMEM with 0.5% FBS and incubated at 37° C. and 5% CO2 overnight. Following overnight serum starvation, cells were treated with compounds at 20 μM starting dose with 1:5 serial dilution prepared in low-serum media. Media was removed and compounds were added to 6-well plate at 2 mL per well and cells were incubated at 37° C. and 5% CO2 for 18 hours. Following compound treatment cells were washed with cold DPBS containing protease/phosphatase inhibitor cocktail (Thermo #1861284) and lysed in RIPA buffer on ice (Pierce #89900, also containing protease/phosphatase inhibitors). Following sonication and frequent vortexing at 4° C. for approximately 1 hour, samples were centrifuged at 14,000 rpm for 20 minutes. Supernatants were collected for protein samples. Protein concentration was determined using BioRad DC Protein Assay (FIGS. 3A and 3C).
Samples for western blotting were prepared in loading buffer (Thermo #NP0007) and 8 μg protein was loaded per lane in 4-12% Novex Bis-Tris gel and run at 60V for approximately 1 hour. Gels were transferred to PVDF membrane using semi-dry transfer device iBlot 2 from Thermo Scientific. Blots were blocked using Superblock T20 blocking solution for 2 hours at room temperature (Thermo #37536). Blots were then incubated with primary antibodies overnight with gentle shaking at 4° C. (TNNI3K #ab136954 and Beta-Actin CST #3700) at 1:1000 and 1:2000 dilution respectively. Following overnight primary antibody incubation, blots were washed 3 times on rocker for 5 minutes each with 1×TBS-T at room temperature. Blots were then incubated with secondary HRP-anti-rabbit at 1:2000 dilution (CST #7074) for 2 hours at room temperature. Blots were then washed with 1×TBS-T 3 times on rocker for 5 minutes each. Protein bands were detected using BioRad Chemi-Doc station and Supersignal West Dura substrate (Thermo #34075). Protein bands were quantified using ImageJ software. TNNI3K bands were normalized to beta-actin loading control. Data are graphed by fold change of cpd over DMSO control.
Here the amount of total normalized TNNI3K expression levels were monitored upon compound treatment in a dose dependent manner. IC50 refers to the concentration at which 50% reduction in protein expression was observed.

[3] = concentration at which 50% of reference probe Compound HH is displaced, quadruplicate, read-out: CRBN AC50 [μM] Format 2b
[4] = concentration at which 50% of reference probe Compound HH is displaced, 40 nM protein, 5 nM probe, read-out: CRBN AC50 [μM] Format 2a

T1 sequence (Q96SW2 whole entry): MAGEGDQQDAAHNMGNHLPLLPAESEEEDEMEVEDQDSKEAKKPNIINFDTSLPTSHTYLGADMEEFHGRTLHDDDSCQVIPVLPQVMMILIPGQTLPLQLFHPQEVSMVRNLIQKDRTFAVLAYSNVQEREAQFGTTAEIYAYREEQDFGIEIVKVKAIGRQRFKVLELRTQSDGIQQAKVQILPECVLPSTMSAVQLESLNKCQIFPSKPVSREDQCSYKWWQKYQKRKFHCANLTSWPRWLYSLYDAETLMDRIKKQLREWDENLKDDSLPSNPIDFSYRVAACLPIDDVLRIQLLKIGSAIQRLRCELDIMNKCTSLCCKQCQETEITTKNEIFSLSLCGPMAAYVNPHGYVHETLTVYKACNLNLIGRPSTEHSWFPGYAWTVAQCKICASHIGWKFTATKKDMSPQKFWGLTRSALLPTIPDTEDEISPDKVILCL

With `O=C1CCN(c2cn[nH]c2)C(=O)N1` [ILB-79, 1-(1H-Pyrazol-4-yl)dihydropyrimidine-2,4(1H,3H)-dione] the AC50 (CRBN [1]) was 6.78 µM and the AC50 (CRBN [2]) was 7.15 µM.

Molecule `CCOC(=O)c1cncc(N2CCC(=O)NC2=O)c1` [ILB-78, Ethyl 5-(2,4-dioxotetrahydropyrimidin-1(2H)-yl)nicotinate] has an AC50 (CRBN [1]; [3]) of 5.07 µM and an AC50 (CRBN [2]; [4]) of 5.72 µM.

With `CNS(=O)(=O)c1ccc(N(C)C)c(Nc2ncnc3cc(OCCCN4CCN(C(=O)N5CCN(CCC#Cc6ccc(N7CCC(=O)NC7=O)cc6)CC5)CC4)ccc23)c1` [Compound 21, 4-(dimethylamino)-3-((7-(3-(4-(4-(4-(4-(2,4-dioxotetrahydropyrimidin-1(2H)-yl)phenyl)but-3-yn-1-yl)piperazine-1-carbonyl)piperazin-1-yl)propoxy)quinazolin-4-yl)amino)-N-methylbenzenesulfonamide] the “TNNI3K degradation (western blot)” value (hTNNI3K WT) was “full degradation” and the “concentration from which no residual TNNI3K was detected” value (hTNNI3K WT) was 6 nM.

In the case of `O=C1CCN(c2cncc(Cl)c2)C(=O)N1` [ILB-73, 1-(5-Chloropyridin-3-yl)dihydropyrimidine-2,4(1H,3H)-dione], the AC50 (CRBN [1]) is reported as 11.9 µM and the AC50 (CRBN [2]) is reported as 15 µM.

`CCOC(=O)Cc1cncc(N2CCC(=O)NC2=O)c1` [ILB-71, Ethyl 2-(5-(2,4-dioxotetrahydropyrimidin-1(2H)-yl)pyridin-3-yl)acetate] showed an AC50 (CRBN [1]; [3]) of 8 µM and an AC50 (CRBN [2]; [4]) of 6.01 µM.

With `CNS(=O)(=O)c1ccc(N(C)C)c(Nc2ncnc3cc(OCCCN4CCC5(CC4)CN(CC#Cc4ccc(N6CCC(=O)NC6=O)cc4)CCO5)ccc23)c1` [Compound 22, 4-(dimethylamino)-3-((7-(3-(4-(3-(4-(2,4-dioxotetrahydropyrimidin-1(2H)-yl)phenyl)prop-2-yn-1-yl)-1-oxa-4,9-diazaspiro[5.5]undecan-9-yl)propoxy)quinazolin-4-yl)amino)-N-methylbenzenesulfonamide] the “TNNI3K degradation (western blot)” value (hTNNI3K WT) was “full degradation” and the “concentration from which no residual TNNI3K was detected” value (hTNNI3K WT) was 32 nM.

Source: patent US20220387602A1, “BIFUNCTIONAL DEGRADERS AND THEIR METHODS OF USE” (NOVARTIS AG, priority 2019, published 2022)
